Measured values reported in patent publication US20230144023A1, “USE OF BUTYLPHTHALIDE AND DERIVATIVE THEREOF” (CSPC NBP PHARMACEUTICAL CO., LTD, priority 2020, published 2023).
Where two headings read alike, the source gives them in different places.

How the values were obtained:
[1] = tested on: paclitaxel (albumin bound) chemotherapy-induced peripheral neuropathy; experiment: Paclitaxel (albumin bound) chemotherapy-induced peripheral neuropathy in rats, butylphthalide intragastric administration (Example 2); format: in vivo, SD (Sprague Dawley) rats; conditions: compared with the model group
Method: The model group was given vegetable oil at the same frequency and with the same administration method as NBP. The normal group was given normal saline at the same frequency and with the same administration method as ab-PTX, and was given vegetable oil at the same frequency and with the same administration method as NBP. […] (2) Thermal pain threshold: measurements were performed on days −1, 7, and 14. Method: IITC Life Science Electronic Von Frey Anesthesio meter was used and the intensity of the light source was adjusted to obtain a baseline of thermal pain threshold of about 3-6 s. […] The rats were placed in a plastic compartment on a glass plate, to make the planta centers of the rats be exposed to the light source. […] (3) Mechanical stimulus pain threshold: measurements were performed on days 0, 6, and 13. Method: the rats were placed in a plastic compartment on a wire mesh, left to stand still for 15 min, stimulated using a stimulation probe with a diameter of 0.4 mm of the IITC Life Science Electronic Von Frey Anesthesio meter at the planta centers of the rats by gradually increasing the force until reflexive withdrawal of the rats.

[2] = PK of total paclitaxel in plasma, B16/F10 tumor-bearing mice (Example 3); format: in vivo, C57BL/6N mice; conditions: NBP 3, 10, 30 mg/kg bid i.p. with ab-PTX 25 mg/kg; Cmax, AUC0-t and other indexes
Method: Administration volume: 10 mL/kg. […] The administration was performed for 15 consecutive days. The administration volume was 10 mL/kg. Before the administration of the last dose of ab-PTX (0 h), and 5 min, 0.5 […] after the administration, blood was sampled (as detailed in Table 5), anticoagulated with heparin, and centrifuged to separate plasma, which was stored at -80° C. for later use. The total amount of paclitaxel in the plasma was determined by protein precipitation-LC/MS/MS.

JIMT-1 xenograft tumor = experiment: Influence of NBP on antitumor efficacy of ab-PTX against JIMT-1 xenograft tumor (Example 4); format: in vivo, Nu/Nu mice
Method: After in vitro resuscitation and passage of JIMT-1 cells to a sufficient amount, the cells were counted by a microscope, and diluted with a serum-free medium to adjust the cell count to about 1×10^8 cells/mL. The cell suspension was kept in an ice-water bath. […] Monotherapy group of ab-PTX: intravenous injection of ab-PTX at 15 mg/kg once every week, qw (on days 0, 7, 14, 21, and 28). Administration period: 28 days. Administration volume: 10 mL/kg. Monotherapy group of NBP: […] The administration volume was 10 mL/kg. […] The administration period was 28 days. The administration volume was 10 mL/kg. The solvent group was given normal saline at the same frequency and with the same method as ab-PTX, and was given vegetable oil at the same frequency and with the same method as NBP. […] Animals were weighed at set time once per day after the commencement of administration. At the end of the experiment, after the animals were euthanized by CO2 asphyxiation, the tumors were excised and weighed.

[3] = PK of Bortezomib and butylphthalide in plasma of MM.1S tumor-bearing mice (Example 8); format: in vivo, Nu/Nu mice
Method: Monotherapy group of Bortezomib: administered by intraperitoneal injection at 0.5 mg/kg, biw (on days 0, 3, 7, 10, and 15);
Monotherapy group of NBP: administered by transoral gavage at 60 mg/kg, bid (the administration was commenced on day 0), and the second dose of NBP was administered with an interval from the first dose of ≥4 h;
Monotherapy group of Palbociclib: intragastric administration at 70 mg/kg, qd (the administration was commenced on day 0);
Combined therapy group of NBP/Bortezomib: the administration frequency and dose were the same as the frequency and dose of the monotherapy group of NBP and the monotherapy group of Bortezomib, respectively.
Combined therapy group of Bortezomib/Palbociclib: the administration frequency and dose were the same as the frequency and dose of the monotherapy group of Bortezomib and the monotherapy group of Palbociclib, respectively.
Combined therapy group of NBP/Bortezomib/Palbociclib: the administration frequency and dose were the same as the frequency and dose of the monotherapy group of NBP, the monotherapy group of Bortezomib, and the monotherapy group of Palbociclib, respectively.
Before administration of the last dose of Bortezomib (0 h), and 5 min, 15 min, 30 min, 1 h, 2 h, 4 h, 8 h, 24 h after the administration, blood was sampled (as detailed in Table 8) (except that blood was sampled from the mice in the solvent group only at 0 h), anticoagulated with heparin, and centrifuged to separate plasma, which was stored at −80° C. for later use. Bortezomib and butyphthalide in the plasma were determined by protein precipitation-LC/MS/MS.

HT29 = experiment: In vitro tumor cell proliferation, MTT (Example 7); conditions: Homo sapiens, HT-29, 72 h
Method: (§1) This experiment includes a monotherapy group of Bortezomib, a combined therapy group (Bortezomib/NBP), and a monotherapy group of NBP. Different drug concentration gradients were set for each group.
(§2) Monotherapy group of Bortezomib: (1) MM.1S, Jeko-1, and HT29 cells: Bortezomib was 1.5× serially diluted from an initial concentration of 20 nM to 8 concentrations: 20, 13.33, 8.89, 5.93, 3.95, 2.63, 1.76, and 1.17 nM, respectively; (2) A549 cells: Bortezomib was 2×serially diluted from an initial concentration of 200 nM to 8 concentrations: 200, 100, 50, 25, 12.5, 6.25, 3.13, and 1.56 nM, respectively; and (3) DU145 cells: Bortezomib was 2× serially diluted from an initial concentration of 100 nM to 8 concentrations: 100, 50, 25, 12.5, 6.25, 3.13, 1.56, and 0.78 nM, respectively.
(§3) Monotherapy group of NBP: NBP was 2× serially diluted from an initial concentration of 480 μM to 8 concentrations: 480, 240, 120, 60, 30, 15, 7.5, and 3.75 μM, respectively.
The action time of the drug was 72 h.
(§4) A certain number of conventionally cultured cells in logarithmic growth phase were inoculated in a 96-well plate with 100 μL per well. […] For adherent cells HT29, A549, and DU145, the above drugs were added 24 h after adherence. 3 replicate wells were set for each concentration of each drug, and blank wells (only culture medium was present, and no tumor cells were inoculated) and normal wells (a culture medium inoculated with tumor cells, drug concentration was 0) were set. The drugs functioned for 72 h, then MTT working solution (5 mg/mL) was added at 20 μL per well; after functioning at 37° C. for 4 h, the supernatant was removed, 150 μL of DMSO (analytically pure) was added; the mixture was fully mixed using a microplate oscillator, the plate was wiped clean, and the optical density (OD) at 550 nm was measured using a microplate reader.
(§5) The cell growth inhibition rate was computed using the following equation:
(§6) Inhibition rate (%)=(OD valuenormal well−OD valueadministration well)/(OD valuenormal well−OD valueblank well)×100%
(§7) Based on the inhibition rate of each concentration, the median inhibitory concentration IC50 of the drug was computed using SPSS19.0.

A549 = experiment: In vitro tumor cell proliferation, MTT (Example 7); conditions: Homo sapiens, A549, 72 h
Method: as §1, §2, §3
The action time of the drug was 72 h.
as §4, §5, §6, §7

[4] = NBP 60 mg/kg gavage, Bor 0.5 mg/kg, Pal 70 mg/kg, mean ± SD, n=6
[5] = read-out: Inhibition rate, First dose
[6] = read-out: Inhibition rate, Mean ± SD
[7] = read-out: Inhibition rate, Second dose
[8] = read-out: Inhibition rate, Third dose

SMILES: CCCCC1OC(=O)c2ccccc21 (centres unmarked) [NBP, 3-n-butylphthalide]
- body weights of the rats ([1]; NBP 3, 10 and 30 mg/kg bid, duloxetine hydrochloride 15 mg/kg qd, intragastric, throughout administration): not obviously changed
- mechanical pain threshold ([1]; day 6, NBP 30 mg/kg bid p.o., P<0.05): significantly decreased
- thermal pain threshold ([1]; day 7, NBP 30 mg/kg bid p.o., P<0.05): significantly decreased
- mechanical pain threshold ([1]; day 13, NBP 3 mg/kg bid p.o.): had a decreasing trend, but did not have statistical difference
- mechanical pain threshold ([1]; day 13, NBP 10 and 30 mg/kg bid, duloxetine hydrochloride 15 mg/kg qd, P<0.05): significantly decreased
- thermal pain threshold ([1]; day 14, NBP 3, 10 and 30 mg/kg bid, duloxetine hydrochloride 15 mg/kg qd, P<0.05): significantly decreased
- influence of NBP on the PK behavior of ab-PTX in mice [2]: did not affect
- Inhibition rate (tumor weight) (JIMT-1 xenograft tumor; NBP 60 mg/kg bid gavage alone): 4.0%
- Tumor weight (JIMT-1 xenograft tumor; NBP 60 mg/kg bid gavage alone, mean ± SD, n=8): 0.9570 ± 0.2529 g
- tumor growth (JIMT-1 xenograft tumor; ab-PTX 15 mg/kg qw i.v., NBP 60 mg/kg bid gavage, compared with the solvent group): not obviously affected
- body weights of the mice (JIMT-1 xenograft tumor; ab-PTX 15 mg/kg qw i.v., NBP 6, 20, 60 mg/kg bid gavage, 28 days): no significant difference
- influence of NBP on the in vivo pharmacokinetic behaviors of monotherapy of Bortezomib and combined therapy of Bortezomib/Palbociclib ([3]; NBP 60 mg/kg bid): did not have obvious influence
- CI of NBP [3, 4]: 2880 ± 1730 mL/min/kg
- Vd of NBP [3, 4]: 1445 ± 298 L/kg
- AUC(0-t) ([3]; Nu/Nu, mouse, plasma, po, NBP 60 mg/kg gavage, Bor 0.5 mg/kg, Pal 70 mg/kg, mean ± SD, n=6, read-out: AUC0-t of NBP in plasma): 236 ± 100 ng·h/mL
- Cmax ([3]; Nu/Nu, mouse, plasma, po, NBP 60 mg/kg gavage, Bor 0.5 mg/kg, Pal 70 mg/kg, mean ± SD, n=6, read-out: Cmax of NBP in plasma): 117 ± 88 ng/mL
- MRT last ([3]; Nu/Nu, mouse, plasma, po, NBP 60 mg/kg gavage, Bor 0.5 mg/kg, Pal 70 mg/kg, mean ± SD, n=6, read-out: MRT0-t of NBP): 3.1 ± 0.6 h
- half-life ([3]; Nu/Nu, mouse, plasma, po, NBP 60 mg/kg gavage, Bor 0.5 mg/kg, Pal 70 mg/kg, mean ± SD, n=6, read-out: t1/2 of NBP in plasma (converted)): 10.1 ± 9.7 h
- inhibition at 30 µM (HT29; [5]): 9.98%
- inhibition at 30 µM (HT29; [6]): 10.7 ± 2.79%
- inhibition at 30 µM (HT29; [7]): 8.27%
- inhibition at 30 µM (HT29; [8]): 13.7%
- inhibition at 30 µM (A549; [5]): -11.1%
- inhibition at 30 µM (A549; [6]): 1.11 ± 10.8%
- inhibition at 30 µM (A549; [7]): 9.68%
- inhibition at 30 µM (A549; [8]): 4.74%
